# Biological target: T1, short form of the GPR120 receptor (Homo sapiens, UniProt Q5NUL3)
# T1 construct: host or cells: PathHunter CHO-K1 GPR120S β-Arrestin Cell Line
# Experiment: Human GPR120 DiscoveRx PathHunter Beta-Arrestin assay, Procedure β-arrestin B
# Assay type: cell-based
# T1 sequence (Q5NUL3 whole entry): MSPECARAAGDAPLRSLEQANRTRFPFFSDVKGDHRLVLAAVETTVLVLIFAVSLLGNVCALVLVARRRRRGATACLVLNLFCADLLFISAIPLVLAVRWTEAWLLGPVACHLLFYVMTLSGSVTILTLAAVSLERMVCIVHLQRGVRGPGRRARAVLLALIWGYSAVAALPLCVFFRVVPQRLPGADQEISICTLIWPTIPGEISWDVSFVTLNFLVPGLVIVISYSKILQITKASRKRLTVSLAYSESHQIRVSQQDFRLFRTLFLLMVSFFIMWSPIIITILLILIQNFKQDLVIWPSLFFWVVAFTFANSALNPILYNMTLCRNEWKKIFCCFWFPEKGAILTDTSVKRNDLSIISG
# T1 sequence (P32121 whole entry partner): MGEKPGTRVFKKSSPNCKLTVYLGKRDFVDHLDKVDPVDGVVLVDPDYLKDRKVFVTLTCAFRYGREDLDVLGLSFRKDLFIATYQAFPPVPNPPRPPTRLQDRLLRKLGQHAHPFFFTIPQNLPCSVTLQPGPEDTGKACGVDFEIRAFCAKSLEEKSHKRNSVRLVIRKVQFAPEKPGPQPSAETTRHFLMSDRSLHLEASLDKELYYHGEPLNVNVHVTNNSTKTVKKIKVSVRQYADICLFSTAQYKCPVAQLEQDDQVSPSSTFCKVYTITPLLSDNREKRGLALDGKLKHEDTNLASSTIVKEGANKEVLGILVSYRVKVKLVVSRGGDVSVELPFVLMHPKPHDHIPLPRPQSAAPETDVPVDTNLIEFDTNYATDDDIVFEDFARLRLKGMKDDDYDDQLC
row,Compound,EC50
1,"O=C(O)CCc1c(F)c(F)c(OCC2=C(c3ccc(Cl)cc3)CCC2)c(F)c1F [Compound 122, 3-[4-[[2-(4-chlorophenyl)cyclopenten-1-yl]methoxy]-2,3,5,6-tetrafluoro-phenyl]Propanoic Acid]",397 nM
2,"Cc1c(CCC(=O)O)ccc(OCC2=C(c3ccccc3F)CCC2)c1C [Compound 124, 3-[4-[[2-(2-fluorophenyl)cyclopenten-1-yl]methoxy]-2,3-dimethyl-phenyl]Propanoic Acid]",235 nM
3,"Cc1cc(OCC2=C(c3ccc(Cl)cc3)CCC2)ccc1CCC(=O)O [Compound 131, 3-[4-[[2-(4-chlorophenyl)cyclopenten-1-yl]methoxy]-2-methyl-phenyl]Propanoic Acid]",566 nM
4,"Cc1ccccc1C1=C(COc2ccc(CCC(=O)O)c(C)c2C)CCC1 [Compound 132, 3-[2,3-dimethyl-4-[[2-(o-tolyl)cyclopenten-1-yl]methoxy]phenyl]Propanoic Acid]",1800 nM
5,"Cc1c(CCC(=O)O)ccc(OCC2=C(c3ccc(Cl)cc3Cl)CCC2)c1C [Compound 133, 3-[4-[[2-(2,4-dichlorophenyl)cyclopenten-1-yl]methoxy]-2,3-dimethyl-phenyl]Propanoic Acid]",1130 nM
6,"Cc1ccc(C2=C(COc3ccc(CCC(=O)O)c(C)c3C)CCC2)cc1N [Compound 134, 3-(4-((2-(3-amino-4-methylphenyl)cyclopent-1-en-1-yl)methoxy)-2,3-dimethylphenyl)Propanoic Acid]",740 nM
7,"COc1cccc(C2=C(COc3ccc(CCC(=O)O)c(C)c3C)CCC2)c1 [Compound 141, 3-[4-[[2-(3-methoxyphenyl)cyclopenten-1-yl]methoxy]-2,3-dimethyl-phenyl]Propanoic Acid]",1230 nM
8,"Cc1c(CCC(=O)O)ccc(OCC2=C(c3ccccn3)CCC2)c1C [Compound 147, 3-[2,3-dimethyl-4-[[2-(2-pyridyl)cyclopenten-1-yl]methoxy]phenyl]Propanoic Acid]",923 nM
9,"O=C(O)CCc1ccc(OCC2=C(c3ccc(Cl)cc3)CCC2)c(F)c1 [Compound 149, 3-[4-[[2-(4-chlorophenyl)cyclopenten-1-yl]methoxy]-3-fluoro-phenyl]Propanoic Acid]",90 nM
10,"O=C(O)CCc1ccc(OCC2=C(c3ccc(Cl)cc3)CCC2)cc1 [Compound 153, 3-[4-[[2-(4-chlorophenyl)cyclopenten-1-yl]methoxy]phenyl]Propanoic Acid]",93 nM
11,"Cc1c(CCC(=O)O)ccc(OCC2=C(c3ccc(Cl)nc3)CCC2)c1C [Compound 158, 3-(4-((2-(6-chloropyridin-3-yl)cyclopent-1-en-1-yl)methoxy)-2,3-dimethylphenyl)Propanoic Acid]",324 nM
12,"Cc1cc(CCC(=O)O)ccc1OCC1=C(c2ccc(Cl)c(F)c2)CCC1 [Compound 159, 3-(4-((2-(4-chloro-3-fluorophenyl)cyclopent-1-en-1-yl)methoxy)-3-methylphenyl)Propanoic Acid]",56 nM
13,"Cc1cc(CCC(=O)O)ccc1OCC1=C(c2ccc(Cl)cc2)CCC(F)(F)C1 [Compound 467, 3-(4-((4′-chloro-4,4-difluoro-3,4,5,6-tetrahydro-[1,1′-biphenyl]-2-yl)methoxy)-3-methylphenyl)Propanoic Acid]",104 nM
14,"Cc1c(CCC(=O)O)ccc(OCC2=C(c3ccccc3)CCCC2)c1C [Compound 472, 3-[2,3-dimethyl-4-[(2-phenylcyclohexen-1-yl)methoxy]phenyl]Propanoic Acid]",488 nM
15,"Cc1c(CCC(=O)O)ccc(OCC2=C(c3ccc(Cl)cc3)CCCC2)c1C [Compound 474, 3-[4-[[2-(4-chlorophenyl)cyclohexen-1-yl]methoxy]-2,3-dimethyl-phenyl]Propanoic Acid]",1030 nM
16,"O=C(O)CCc1c(F)c(F)c(OCC2=C(c3ccc(Cl)cc3)CCCC2)c(F)c1F [Compound 479, 3-[4-[[2-(4-chlorophenyl)cyclohexen-1-yl]methoxy]-2,3,5,6-tetrafluoro-phenyl]Propanoic Acid]",682 nM

# The next lines start with the values.
row,EC50,Compound
1,155 nM,"Cc1cc(CCC(=O)O)ccc1OCC1=C(c2ccc(Cl)cc2)CCCC1 [Compound 483, 3-[4-[[2-(4-chlorophenyl)cyclohexen-1-yl]methoxy]-3-methyl-phenyl]Propanoic Acid]"
2,356 nM,"Cc1ccc(C2=C(COc3c(F)cc(CCC(=O)O)cc3F)CCCC2)cc1F [Compound 493, 3-[3,5-difluoro-4-[[2-(3-fluoro-4-methyl-phenyl)cyclohexen-1-yl]methoxy]phenyl]Propanoic Acid]"
3,352 nM,"Cc1ccc(C2=C(COc3ccc(CCC(=O)O)c(C)c3C)CCCC2)cc1F [Compound 496, 3-[4-[[2-(3-fluoro-4-methyl-phenyl)cyclohexen-1-yl]methoxy]-2,3-dimethyl-phenyl]Propanoic Acid]"
4,191 nM,"O=C(O)CCc1ccc(OCC2=C(c3ccc(Cl)cc3)CCC(F)(F)C2)c(F)c1F [Compound 503, 3-[4-[[2-(4-chlorophenyl)-5,5-difluoro-cyclohexen-1-yl]methoxy]-2,3-difluoro-phenyl]Propanoic Acid]"
5,1790 nM,"Cc1c(CCC(=O)O)ccc(OCC2=C(c3cccc(Cl)c3)CCCC2)c1C [Compound 509, 3-[4-[[2-(3-chlorophenyl)cyclohexen-1-yl]methoxy]-2,3-dimethyl-phenyl]Propanoic Acid]"
6,210 nM,"O=C(O)CCc1cc(F)c(OCC2=C(c3ccc(Cl)cc3)CCCC2)c(F)c1 [Compound 510, 3-[4-[[2-(4-chlorophenyl)cyclohexen-1-yl]methoxy]-3,5-difluoro-phenyl]Propanoic Acid]"
7,187 nM,"O=C(O)CCc1ccc(OCC2=C(c3ccc(Cl)cc3)CCCC2)c(F)c1 [Compound 511, 3-[4-[[2-(4-chlorophenyl)cyclohexen-1-yl]methoxy]-3-fluoro-phenyl]Propanoic Acid]"
8,803 nM,"Cc1c(CCC(=O)O)ccc(OCC2=C(c3ccc(N(C)C)cc3)CCCC2)c1C [Compound 512, 3-[4-[[2-(4-dimethylaminophenyl)cyclohexen-1-yl]methoxy]-2,3-dimethyl-phenyl]Propanoic Acid]"
9,137 nM,"O=C(O)CCc1ccc(OCC2=C(c3ccc(Cl)cc3)CCCC2)c(F)c1F [Compound 513, 3-[4-[[2-(4-chlorophenyl)cyclohexen-1-yl]methoxy]-2,3-difluoro-phenyl]Propanoic Acid]"
10,252 nM,"O=C(O)CCc1ccc(OCC2=C(c3ccc(Cl)cc3)CCCC2)c2c1CCC2 [Compound 514, 3-[7-[[2-(4-chlorophenyl)cyclohexen-1-yl]methoxy]indan-4-yl]Propanoic Acid]"
